Reference: the NIST ThermoML archive (doi:10.1021/je0504109)
Numbers after ± are expanded uncertainties.

Assays:
[1] = 298.15 K; 101 kPa; Liquid
[2] = xn = mol fraction of the nth substance listed; conditions: 298.15 K, 101 kPa, Liquid

Row | SMILES | mass density [1] [kg/m3] | viscosity [1] [mPa·s] | mass density ([2]; x2 = 0) [kg/m3] | viscosity ([2]; x2 = 0) [mPa·s] | further results
1 | C1COCO1 [1,3-dioxolane] | 1057.1 ± 0.9 | 0.531 ± 0.01 |  |  | 
2 | C1COCCO1 [1,4-dioxane] | 1026.5 ± 0.8 | 1.196 ± 0.02 |  |  | 
3 | CCCCN [1-butanamine] | 731.9 ± 0.6 | 0.493 ± 0.009 |  |  | 
4 | CCCC(=O)O [butanoic acid] | 952.8 ± 0.8 | 1.396 ± 0.023 |  |  | 
5 | CCC(C)=O [butanone] | 798.1 ± 0.6 | 0.373 ± 0.007 |  |  | 
6 | CCC(C)=O [butanone] + C1COCO1 |  |  | 798.1 ± 0.6 | 0.373 ± 0.007 | 
7 | CCCCOC(C)=O [butyl ethanoate] | 874.4 ± 0.7 | 0.668 ± 0.012 |  |  | 
8 | CCCCOC(C)=O [butyl ethanoate] + C1COCCO1 |  |  | 874.4 ± 0.7 | 0.668 ± 0.012 | mass density ([2]; x2 = 0.1278): 887.5 ± 0.7 kg/m3; viscosity ([2]; x2 = 0.1278): 0.682 ± 0.012 mPa·s; mass density ([2]; x2 = 0.2479): 901 ± 0.7 kg/m3; viscosity ([2]; x2 = 0.2479): 0.692 ± 0.012 mPa·s; mass density ([2]; x2 = 0.361): 914.9 ± 0.7 kg/m3; viscosity ([2]; x2 = 0.361): 0.708 ± 0.013 mPa·s; mass density ([2]; x2 = 0.4678): 929.2 ± 0.7 kg/m3; viscosity ([2]; x2 = 0.4678): 0.739 ± 0.013 mPa·s; mass density ([2]; x2 = 0.5687): 944.1 ± 0.8 kg/m3; viscosity ([2]; x2 = 0.5687): 0.779 ± 0.014 mPa·s; mass density ([2]; x2 = 0.6641): 959.4 ± 0.8 kg/m3; viscosity ([2]; x2 = 0.6641): 0.822 ± 0.014 mPa·s; mass density ([2]; x2 = 0.7547): 975.3 ± 0.8 kg/m3; viscosity ([2]; x2 = 0.7547): 0.866 ± 0.015 mPa·s; mass density ([2]; x2 = 0.8406): 991.8 ± 0.8 kg/m3; viscosity ([2]; x2 = 0.8406): 0.939 ± 0.016 mPa·s; mass density ([2]; x2 = 0.9223): 1008.9 ± 0.8 kg/m3; viscosity ([2]; x2 = 0.9223): 1.035 ± 0.017 mPa·s
9 | CCCCOC(C)=O [butyl ethanoate] + C1COCO1 |  |  | 874.4 ± 0.7 | 0.668 ± 0.012 | 
